According to US20250186420A1, “POLYMETHINIUM SALTS AS INHIBITORS OF DIHYDROOROTATE DEHYDROGENASE” (UNIVERZITA KARLOVA, priority 2022, published 2025):

Assays:
Assay type in all cases: cell-based
[1] = tested on: DHODH-dependent respiration in PNT1A cell line; assay: Inhibition of DHODH-dependent respiration (Oxygraph-2k); conditions: model of normal prostate tissue, test substance 1 to 4 nM, permeabilized cells
Protocol: (§1) DHODH-dependent respiration was performed as follows. Cells were trypsinized, washed with PBS, resuspended in an amount of 2×10^6 cells per ml Mir05 medium (0.5 mM EGTA, 3 mM MgCl2, 60 mM K-lactobionate, 20 mM taurine, 10 mM KH2PO4, 110 mM sucrose, 1 g/L bovine serum albumin, 20 mM Hepes, pH 7.1 at 30° C.) and transferred to the chamber of the Oxygraph-2k instrument (Oroboros). Respiration was measured at 37° C. Cells were permeabilized with 5 μg of digitonin per 10^6 cells, and complex I inhibitor (0.3 μM rotenone) and test substance were added at concentrations from 1 to 4 nM before adding the substrate. DHODH-mediated respiration was assessed by subtracting the residual rate of respiration remaining after the addition of 30 μM leflunomide from the rate of respiration in the presence of 1 mM dihydroorotate (DHO), 3 mM ADP, and 10 μM cytochrome c.

[2] = tested on: DHODH-dependent respiration in U-2 OS; assay: as above; conditions: U-2 OS tumor line; test substance 1 to 4 nM; permeabilized cells
Protocol: as §1

[3] = tested on: DHODH-dependent respiration in PC-3; assay: as above; conditions: PC-3 tumor line; test substance 1 to 4 nM; permeabilized cells
Protocol: as §1

PNTA [4] = assay: xCELLigence real-time impedance cell invasiveness (matrigel); conditions: for Normalized cell index (cell invasiveness): matrigel-coated wells, normalized to 1.0 at addition of test agent, concentration based on IC50 for the cell line
Protocol: (§2) The xCELLigence system based on real-time cell impedance analysis (RTCA) was used to determine invasiveness and migration rates. The xCELLigence system consists of four main components: an RTCA DP station, an RTCA computer with integrated software, and CIM 16 disposable plates. First, the optimal cell seeding concentration for the proliferation and invasiveness assay was determined. After seeding the total number of cells in 200 μl medium into each well in E-plate 16, cell adherence and proliferation were monitored every 15 minutes. For the invasiveness assay, the optimal response was found in a well containing 20,000 cells. After coating the upper wells with matrigel and adding FBS as a chemoattractant, cells were seeded in 100 μl medium in each well of a CIM-plate 16. Adherence and growth of cells through the matrigel was monitored every 15 minutes. The duration of all experiments was 150 hours. The relative invasiveness rate was defined as the cellular index for matrigel-coated wells (cells must spread/pass through the matrigel to generate a signal) at a given time point. The impedance of electron flow due to adherent cells is given by a unitless parameter called the cell index (CI), where CI=(impedance at time point n-impedance in the absence of cells)/nominal impedance value). In order to compare individual cell lines/treatment, these cell indices were normalized to 1.0 at the time the test agents were added. Concentrations of compounds were chosen based on the IC50 inhibitory concentration for each cell line.

U-2 OS [5] = assay: as above; conditions: for Normalized cell index (cell invasiveness): matrigel-coated wells, normalized to 1.0 at addition of test agent, concentration based on IC50 for the cell line
Protocol: as §2

PC-3 [6] = assay: as above; conditions: for Normalized cell index (cell invasiveness): matrigel-coated wells, normalized to 1.0 at addition of test agent, concentration based on IC50 for the cell line
Protocol: as §2

PNTA [7] = assay: xCELLigence real-time impedance cell migration; conditions: for Normalized cell index (cell migration): cell index normalized to 1.0 at addition of test agent, concentration based on IC50 for the cell line
Protocol: as §2

U-2 OS [8] = assay: xCELLigence real-time impedance cell migration; conditions: for Normalized cell index (cell migration): cell index normalized to 1.0 at addition of test agent, concentration based on IC50 for the cell line
Protocol: as §2

PC-3 [9] = assay: xCELLigence real-time impedance cell migration; conditions: for Normalized cell index (cell migration): cell index normalized to 1.0 at addition of test agent, concentration based on IC50 for the cell line
Protocol: as §2

With `CCCN1/C(=C/C=C(/C=C/C2=[N+](CCC)c3ccccc3C2(C)C)c2ccncc2)C(C)(C)c2ccccc21.[I-]` [Substance 2] the DHODH-dependent respiration [1] was “unaffected”, the DHODH-dependent respiration [2] was “caused a decrease in DHODH-dependent respiration” and the DHODH-dependent respiration [3] was “caused a decrease in DHODH-dependent respiration”. The “Control-substance (difference of normalized cell index, cell invasiveness)” value (PNTA [4]) was 16.5, the “Normalized cell index (cell invasiveness)” value (PNTA [4]) was 3.2 and the “Control-substance (difference of normalized cell index, cell invasiveness)” value (U-2 OS [5]) was 23.7. The “Normalized cell index (cell invasiveness)” value (U-2 OS [5]) was 1.9, the “Control-substance (difference of normalized cell index, cell invasiveness)” value (PC-3 [6]) was 17.4 and the “Normalized cell index (cell invasiveness)” value (PC-3 [6]) was 5.4. The “Control-substance (difference of normalized cell index, cell migration)” value (PNTA [7]) was 11.6, the “Normalized cell index (cell migration)” value (PNTA [7]) was 7.0 and the “Control-substance (difference of normalized cell index, cell migration)” value (U-2 OS [8]) was 20.4. The “Normalized cell index (cell migration)” value (U-2 OS [8]) was 3.9, the “Control-substance (difference of normalized cell index, cell migration)” value (PC-3 [9]) was 19.3 and the “Normalized cell index (cell migration)” value (PC-3 [9]) was 19.5.

In the case of `CCCN1/C(=C/C=C(/C=C/c2sc3ccccc3[n+]2CCC)c2ccccc2)Sc2ccccc21.[I-]` [Substance 1], the DHODH-dependent respiration [1] is reported as “unaffected”, the DHODH-dependent respiration [2] is reported as “caused a decrease in DHODH-dependent respiration” and the DHODH-dependent respiration [3] is reported as “caused a decrease in DHODH-dependent respiration”. The “Control-substance (difference of normalized cell index, cell invasiveness)” value (PNTA [4]) was 16.9, the “Normalized cell index (cell invasiveness)” value (PNTA [4]) was 2.8 and the “Control-substance (difference of normalized cell index, cell invasiveness)” value (U-2 OS [5]) was 24.3. For the same compound, the “Normalized cell index (cell invasiveness)” value (U-2 OS [5]) was 1.3, the “Control-substance (difference of normalized cell index, cell invasiveness)” value (PC-3 [6]) was 21.4 and the “Normalized cell index (cell invasiveness)” value (PC-3 [6]) was 1.4. For the same compound, the “Control-substance (difference of normalized cell index, cell migration)” value (PNTA [7]) was 15.2, the “Normalized cell index (cell migration)” value (PNTA [7]) was 3.4 and the “Control-substance (difference of normalized cell index, cell migration)” value (U-2 OS [8]) was 20.8. For the same compound, the “Normalized cell index (cell migration)” value (U-2 OS [8]) was 3.5, the “Control-substance (difference of normalized cell index, cell migration)” value (PC-3 [9]) was 30.0 and the “Normalized cell index (cell migration)” value (PC-3 [9]) was 8.8.
